Source: patent US20240366471A1, “MULTIDOSE ANTIBODY DRUG PRODUCTS USING PHENOL OR BENZYL ALCOHOL” (Regeneron Pharmaceuticals, Inc., priority 2023, published 2024)
Each block holds one compound with its values, some of them ahead of it.

Legend:
[1] = Purity by SE-UPLC (% HMW, % Main, % LMW) on storage; format: physicochemical; conditions: stress conditions (40° C. and 45° C.)
Protocol: To determine the effect of preservatives on high molecular weight (HMW) complex formation for different mAbs formulations, various antibodies were incubated at 40° C. over the course of 3 months with or without tested preservatives.
To determine the effect of preservatives on high molecular weight (HMW) complex formation for different mAbs formulations, various antibodies were incubated at 25° C. over the course of 6 months with or without tested preservatives.

[2] = Compatibility of preservatives with mAb formulations; format: physicochemical; conditions: preservative in mAb formulations, incompatibility seen as turbidity
[3] = Overall storage stability of mAb formulations with preservatives; conditions: all storage conditions
Protocol: Storage stability of the Fc-containing proteins were assessed at various temperatures, as will be described in further detail, including at 5° C., 25° C., 40° C., and 45° C., to enable kinetic degradation profiling, if applicable.
The sample formulations with preservatives were compared to the control formulations without preservatives to evaluate the effect of preservatives on protein stability.

- mAb aggregation detected by SE-UPLC (in words) [1]: higher mAb aggregation
Compound: OCc1ccccc1 [benzyl alcohol]

Compound: Cc1cccc(O)c1 [m-cresol]
- compatibility with the mAb formulations [2]: not compatible
- compatibility with the mAb formulations ([2]; listed as cresol): incompatible

Compound: Oc1ccccc1 [phenol]
- destabilizing effect of preservative on mAbs (in words) [3]: least destabilization effect
- destabilizing effect of preservative on mAbs (in words) ([3]; listed as Phenol): only minimal destabilizing effect
